Assay results from patent US20260021119A1, “TETRACYCLINE DERIVATIVES” (ICM (INSTITUT DU CERVEAU ET DE LA MOELLE ÉPINIÈRE), priority 2022, published 2026).
Entries after “also recorded” stand apart in the source; their conditions may differ.

How the values were obtained:
[1] = test system: dopaminergic neurons (TH+ neurons); assay: Neuroprotection: rescue of dopamine neurons from spontaneous oxidative stress in primary cultures; type: cell-based; details: for EC50: Neuron, rescue of dopamine neurons from spontaneous oxidative stress, determined graphically, read-out: Neuroprotection (EC 50 μM)
Procedure: In primary cultures of dopaminergic neurons, TH+ neurons suffer from oxidative stress, leading to the death of the neurons after a few days. When cultured in the presence of a positive reference (apotransferrin), the dopaminergic neurons survive. The neuroprotective effects of 10 μM of doxycycline (DOX) and of 3 μM or 5 μM of the compound of formula (Ia) according to the present invention were evaluated, compared to the effect of 100 μg/mL of apotransferrin (APO).
(§1) The properties of tetracycline derivatives, including the compound of formula (Ia) according to the present invention, were compared regarding the neuroprotection, anti-inflammatory effects, anti-aggregant activity, and antibiotic activity. The properties were evaluated as described herein above.
(§2) EC50s, IC50s determined graphically, *Rescue of dopamine neurons from spontaneous oxidative stress; ** TNF α release inhibition under LPS exposure, ^#Weak antibiotic activity on only 1 of the 3 bacterial strains (i.e. S aureus). ##Strong antibiotic activity on all 3 bacterial strains. ^###Significant antibiotic activity on two bacterial strains.

[2] = test system: Gram+ and Gram- bacteria (S. aureus, E. coli, E. faecalis, P. aeruginosa); assay: Antibiotic activity, summary over the bacterial strains (Examples 3 and 7); type: cell-based; parameters: activity against Gram+ and Gram− bacteria: dose or concentration left out as unconfirmed; key to Antibiotic activity: low: Weak antibiotic activity on only 1 of the 3 bacterial strains (i.e. S aureus); high: Strong antibiotic activity on all 3 bacterial strains; Significant antibiotic activity on two bacterial strains
Procedure: Bacterial strains used in this study were: S. aureus (ATCC25923), E. coli (ATCC25922), E. faecalis (ATCC29212) and P. aeruginosa (PA01). Strains were maintained at −80° C. in 15% (v/v) glycerol for cryoprotection. Bacteria were routinely grown in Mueller-Hinton (MH) broth at 37° C.
The susceptibility of bacterial strains to antibiotics and compounds was determined in microplates using the standard broth dilution method in accordance with the recommendations of the Comité de 1′Antibiogramme de la Société Française de Microbiologie (CA-SFM). (Members of the SFM Antibiogram Committee, R. Int. J. Antimicrob. Agents 2003, 21, 364). Briefly, the Minimal Inhibitory Concentrations (MICs) were determined with an inoculum of 10^5 CFU in 200 μL of MH broth containing two-fold serial dilutions of each drug. […] To determine all MICs, the measurements were independently repeated in triplicate.
The compound of formula (Ia) according to the invention was tested against clinical isolates Gram-bacteria (P. aeruginosa, E. coli) and Gram+ bacteria (S. aureus, E. faecalis). Minimum inhibitory concentrations (MIC) were tentatively determined and compared to known antibiotic tetracyclines (doxycycline, demeclocycline, chlortetracycline) and to the compound of formula (B) disclosed in Example 1 of the present application. The test was reproduced twice and the average MIC were calculated.
as §1, §2

alpha-synuclein = alpha-synuclein (Homo sapiens, UniProt P37840); assay: alpha-synuclein aggregation, thioflavin T (ThT) fluorescence; type: biochemical
Procedure: The antiaggregant effect of the compound of formula (Ia) according to the present invention on alpha-synuclein (αS) was evaluated in vitro by measuring the fluorescence intensity of the probe thioflavin T (ThT), a molecule that specifically binds to cross-β structures characteristic of amyloid-like aggregation. The compound of formula (Ia) was dissolved in dimethylsulfoxide to reach a concentration of […]. In this assay, 70 μM of alpha-synuclein was incubated with and without 10 μM, 20 μM and 50 μM of the compound of formula (Ia), under orbital agitation (600 rpm), at 37° C., for 5 days. After the incubation time, Tht was added to each sample and changes in the emission fluorescence spectra (λex=450 and λem=[…]) was monitored using a Horiba Fluoromax CP4 spectrofluorometer.

[3] = test system: formalin-induced pain behavior; assay: Formalin-induced nociceptive pain test; type: in vivo, C57/BL6 mice; details: for pain-related responses in the formalin test (overall): mice; for sex dependence of analgesic response: single injection, (C) 10 mg/kg, (Ia) 40 mg/kg, male vs female mice, phase 2
Procedure: The analgesic effects of the compound of formula (C) described in Example 6 (administered at doses of 5 mg/kg of animal, 10 mg/kg of animal and 20 mg/kg of animal) and the compound of formula (Ia) according to the present invention (administered at doses of 10 mg/kg of animal, 20 mg/kg of animal, and 40 mg/kg of animal) were tested using the formalin-induced nociceptive pain model (as disclosed in the publication Lopes DM, Cater HL, Thakur M et al. “A refinement to the formalin test in mice [version 2; peer review: 2 approved]” F1000Research 2019, 8:891).
To test the anti-pain effects of compounds (Ia) and (C) according to the present invention, a formalin pain test was performed, which consists in subcutaneously injecting 50 μl of a 5.0% formalin solution into the right hind paw of adult C57/BL6 mice (Taylor and Basbaum, J Pain, 2000) before scoring pain behavior. The intensity of pain was estimated by recording the cumulative time (sec) during which animals develop a licking/bitting behavior in response to formalin injection. This response is divided into a transient early (Phase I) phase followed by a more prolonged late (Phase II) phase. Pain scoring is performed by experimenters blinded to test treatments using a video recording of formalin-induced pain behavior.

[4] = Brain penetration after single subcutaneous injection; type: in vivo; details: mouse, brain and serum, sc; 40 mg/kg single subcutaneous injection, Swiss mice, 30 min to 24 h, n=3; read-out: brain-to-plasma ratio calculated from the area under the concentration time curves
Procedure: Adult Swiss mice received a single subcutaneous injection of 40 mg/kg of the compound of formula (Ia) according to the present invention, the compound of formula (C), or doxycycline diluted in saline with 5% DMSO and 5% Tween 80 (doxycycline was used as a reference tetracycline). The mice were sacrificed 30 min, 1 h, 8 h, and 24 h after treatment. After sacrifice, brain and serum samples were collected and processed at each time point for tetracycline dosage, using an UHPLC system coupled with a triple quadrupole mass spectrometer LCMS-8030 (Shimadzu Corporation, Kyoto, Japan).

| Structure (SMILES) | EC50 [1] | Antibiotic activity ([2]; summary over bacterial strains) | Anti aggregant activity at 20 μM (alpha-synuclein) | reduction of nociceptive pain, phase 1 and 2 ([3]; 5 mg/kg, sub-chronic regimen (6 subcutaneous injections), male adult C57/BL6 mice, not different from morphine 10 mg/kg) | pain-related responses in the formalin test (overall) [3] | anti-nociceptive effects, phases 1 and 2 ([3]; single injection 10 mg/kg prior to formalin, not different from morphine 10 mg/kg) | sex dependence of analgesic response [3] | Kp [4] | neuroprotective effect ([1]; 3 μM and 5 μM, compared to apotransferrin 100 μg/mL) | activity against Gram+ and Gram− bacteria [2] | inhibition of alpha-synuclein aggregation (ThT fluorescence) (alpha-synuclein; 10 μM, 20 μM and 50 μM compound, 70 μM alpha-synuclein, 37° C., 5 days, vs control, dose dependent) | analgesic effects, phases 1 and 2 ([3]; between 20 and 40 mg/kg, sub-chronic regimen, subcutaneous, male adult C57/BL6 mice) | anti-nociceptive effects, both phases ([3]; single injection 40 mg/kg prior to formalin) |
| --- | --- | --- | --- | --- | --- | --- | --- | --- | --- | --- | --- | --- | --- |
| NC(=O)C1=C(O)CC2CC3C(=C(O)C2C1=O)C(=O)c1c(O)ccc(Cl)c1[C@H]3O (stereo partly drawn) [Compound of formula (C)] | 0.81 µM | low^# | yes | highly effective | reduce pain-related responses; also recorded: showed anti-pain effects | robust anti-nociceptive effects | male mice exhibited a better analgesic response | 0.27 ± 0.13 | – | – | – | – | – |
| C[C@H]1c2cccc(O)c2C(=O)C2=C(O)C3C(=O)C(C(N)=O)=C(O)C[C@@H]3[C@@H](O)[C@@H]21 (stereo partly drawn) [Compound of formula (Ia), (4aS,5R,5aR,6R)-3,5,10,12-tetrahydroxy-6-methyl-1,11-dioxo-1,4,4a,5,5a,6,11,12a-octahydrotetracene-2-carboxamide] | 1.58 µM | – | yes | – | reduce pain-related responses; also recorded: showed anti-pain effects | – | females responded more effectively | 0.21 ± 0.05 | highly protective | did not show any activity | significantly inhibits | exerted analgesic effects | exerted anti-nociceptive effects |
